The source made the active and inactive calls. The calls are words filed in the database; no cut-off is given here.
How the values were obtained:
[1] = biological target: Prostaglandin G/H synthase 1 (Homo sapiens) (UniProt P23219); experiment: Binding affinity to COX1 (unknown origin)
Rattus norvegicus [2] = experiment: Gastrointestinal toxicity in Rattus norvegicus Wistar (rat) assessed as induction of duodenum macroscopic damage at 20 mg/kg, po measured on day 8; type: organism-based; parameters: dose 20 mg/kg, route oral; conditions: in vivo
Rattus norvegicus [3] = experiment: Anti-inflammatory activity in Rattus norvegicus Wistar (rat) assessed as decrease in cotton pellet-induced granuloma weight at 20 mg/kg, po measured on day 8; type: functional, organism-based; parameters: dose 20 mg/kg
Rattus norvegicus [4] = experiment: Gastrointestinal toxicity in Rattus norvegicus Wistar (rat) assessed as induction of stomach macroscopic damage at 20 mg/kg, po measured on day 8; type: organism-based; parameters: dose 20 mg/kg, route oral; conditions: in vivo
[5] = biological target: T1, Prostaglandin G/H synthase 2 (Homo sapiens) (UniProt P35354); experiment: Binding affinity to COX2 (unknown origin)
T1 sequence (whole entry): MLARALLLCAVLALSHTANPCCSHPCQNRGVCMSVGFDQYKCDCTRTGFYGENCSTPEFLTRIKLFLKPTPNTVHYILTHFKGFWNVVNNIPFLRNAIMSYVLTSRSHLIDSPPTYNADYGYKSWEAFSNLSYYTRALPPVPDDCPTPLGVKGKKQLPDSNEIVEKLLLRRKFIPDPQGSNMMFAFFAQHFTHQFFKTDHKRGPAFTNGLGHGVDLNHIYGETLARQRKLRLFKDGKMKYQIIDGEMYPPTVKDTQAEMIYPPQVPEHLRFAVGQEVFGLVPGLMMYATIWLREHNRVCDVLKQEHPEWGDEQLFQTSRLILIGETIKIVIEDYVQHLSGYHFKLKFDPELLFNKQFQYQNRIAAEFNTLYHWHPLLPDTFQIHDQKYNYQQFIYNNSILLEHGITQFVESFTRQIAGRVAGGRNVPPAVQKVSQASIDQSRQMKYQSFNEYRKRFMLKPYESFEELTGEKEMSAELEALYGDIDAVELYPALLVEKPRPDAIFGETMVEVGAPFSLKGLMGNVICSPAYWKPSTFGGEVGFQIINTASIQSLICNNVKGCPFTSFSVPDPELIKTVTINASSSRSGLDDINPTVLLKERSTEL

Rattus norvegicus [6] = experiment: Anti-inflammatory activity in Rattus norvegicus Wistar (rat) assessed as decrease in cotton pellet-induced total weight of granuloma at 20 mg/kg, po measured on day 8; type: functional, organism-based; parameters: dose 20 mg/kg
[7] = biological target: T2, Prostaglandin G/H synthase 1 (Ovis aries) (UniProt P05979); experiment: Inhibition of Ovis aries (sheep) COX1 at 0.1 uM by colorimetric analysis
T2 sequence (whole entry): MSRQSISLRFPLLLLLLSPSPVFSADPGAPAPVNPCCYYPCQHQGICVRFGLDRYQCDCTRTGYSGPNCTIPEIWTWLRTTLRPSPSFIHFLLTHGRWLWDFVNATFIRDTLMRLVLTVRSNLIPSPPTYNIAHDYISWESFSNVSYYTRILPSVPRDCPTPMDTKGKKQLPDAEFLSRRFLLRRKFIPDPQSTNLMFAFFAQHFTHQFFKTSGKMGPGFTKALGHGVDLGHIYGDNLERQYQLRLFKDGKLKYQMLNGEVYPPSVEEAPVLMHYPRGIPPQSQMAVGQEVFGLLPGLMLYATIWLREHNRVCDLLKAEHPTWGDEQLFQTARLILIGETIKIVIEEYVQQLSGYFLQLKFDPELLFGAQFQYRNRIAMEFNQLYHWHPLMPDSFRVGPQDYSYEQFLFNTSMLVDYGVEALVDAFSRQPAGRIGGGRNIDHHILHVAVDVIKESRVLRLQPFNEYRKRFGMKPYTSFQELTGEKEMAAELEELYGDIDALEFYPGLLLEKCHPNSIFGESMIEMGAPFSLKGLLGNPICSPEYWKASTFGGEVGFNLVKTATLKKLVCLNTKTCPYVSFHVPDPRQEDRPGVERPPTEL

Rattus norvegicus [8] = experiment: Anti-inflammatory activity in Rattus norvegicus Wistar (rat) assessed as decrease in cotton pellet-induced wet weight of granuloma at 20 mg/kg, po measured on day 8; type: functional, organism-based; parameters: dose 20 mg/kg
Rattus norvegicus [9] = experiment: Anti-inflammatory activity in Rattus norvegicus Wistar (rat) assessed as decrease in cotton pellet-induced dry weight of granuloma at 20 mg/kg, po measured on day 8; type: functional, organism-based; parameters: dose 20 mg/kg

Chain of Prostaglandin G/H synthase 1 (Homo sapiens) (P23219 whole entry): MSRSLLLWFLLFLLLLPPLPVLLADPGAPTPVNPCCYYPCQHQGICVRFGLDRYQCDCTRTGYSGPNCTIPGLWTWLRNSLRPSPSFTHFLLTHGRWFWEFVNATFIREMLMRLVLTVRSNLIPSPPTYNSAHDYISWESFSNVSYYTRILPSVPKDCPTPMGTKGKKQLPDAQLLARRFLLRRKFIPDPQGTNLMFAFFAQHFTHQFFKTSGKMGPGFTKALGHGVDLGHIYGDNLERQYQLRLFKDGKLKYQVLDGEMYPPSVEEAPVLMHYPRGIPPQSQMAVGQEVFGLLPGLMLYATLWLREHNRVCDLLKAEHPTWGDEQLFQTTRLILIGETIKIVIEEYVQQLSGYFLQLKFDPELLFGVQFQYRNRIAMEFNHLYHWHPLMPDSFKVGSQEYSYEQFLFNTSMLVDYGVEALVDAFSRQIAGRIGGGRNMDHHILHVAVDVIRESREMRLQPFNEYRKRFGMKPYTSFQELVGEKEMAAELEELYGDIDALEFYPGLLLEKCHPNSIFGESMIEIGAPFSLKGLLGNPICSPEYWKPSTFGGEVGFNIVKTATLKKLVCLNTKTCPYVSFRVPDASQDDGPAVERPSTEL

Structure (SMILES) | Activity [1] | Activity (Rattus norvegicus [2]) | Activity (Rattus norvegicus [4]) | Activity [5] | other results
CCCCN(CCCC)c1nc2ccccn2c1[N+](=O)[O-] | Active | – | – | – | –
CC(C)N(c1nc2ccccn2c1[N+](=O)[O-])C(C)C | Active | Non-toxic | Non-toxic | – | Activity (Rattus norvegicus [3]): inactive
O=[N+]([O-])c1c(NCc2ccccc2)nc2ccccn12 | Active | Non-toxic | Non-toxic | Active | Activity (Rattus norvegicus [3]): inactive
CCCCNc1nc2ccccn2c1[N+](=O)[O-] | Active | – | – | – | –
O=[N+]([O-])c1c(NC2CC2)nc2ccccn12 | Active | Non-toxic | Non-toxic | – | Activity (Rattus norvegicus [6]): Active; inhibition [7]: 3.8%; Activity (Rattus norvegicus [8]): Active; Activity (Rattus norvegicus [9]): Active
C[C@H](Nc1nc2ccccn2c1[N+](=O)[O-])c1ccccc1 | Active | – | – | – | –
O=[N+]([O-])c1c(NC2CCCCC2)nc2ccccn12 | Active | – | – | Active | –
C[C@@H](Nc1nc2ccccn2c1[N+](=O)[O-])c1ccccc1 | Active | – | – | Active | –
CC(C)Nc1nc2ccccn2c1[N+](=O)[O-] | Active | – | – | – | –
